Like-named read-outs stand apart in the source and are kept apart here.
How the values were obtained:
[1] = rat, 90 day period; cited from earlier work
mosquitoes = assay: Caged mortality test of egg laying structures returned after one month in the field; details: paper paddles returned to the lab after one month in the field
Description: A field test of a lethal breeding container according to Example 2, containing 0.87 deltramethrin on the egg laying structure, was conducted at three military housing sites in the Rio de Janeiro area of Brazil. At each housing site, six houses were selected to receive the lethal breeding containers. About 500 meters away, six houses were selected to serve as control units.
After one month in the field, the egg laying structures from the lethal container breeding containers were dried and shipped to the U.S. for testing. Four egg laying structures from outside lethal mosquito breeding containers and four egg laying structures from inside lethal mosquito breeding containers were reused in lethal. mosquito breeding containers and the mortality rate was determined.
A 1 cubic foot mosquito cage was used. The mosquitoes are given a blood meal at day 4 to 6 after post-emergence. […]
The mortality rate is determined by counting the number of deceased mosquitoes and live mosquitoes, adding these numbers together to arrive at the total number of mosquitoes exposed, and then dividing number of deceased mosquitoes by the total number of mosquitoes and multiplying that quotient by 100%. […]

[2] = 2 year beagle; cited from earlier work

Q: Which results are given for `CC1(C)[C@H](C(=O)O[C@H](C#N)c2cccc(Oc3ccccc3)c2)[C@@H]1C=C(Br)Br` [deltamethrin]?
A: NOEL [1]: 1 mg/kg/day; average mortality in caged tests (mosquitoes): 80%; NOEL [2]: 1 mg/kg/day
